Experimental findings from PubChem BioAssay (NCI) are described below.

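Grown in 96-well plates, cells were treated for 48 hours with each compound at five concentrations. Insufficient inhibition: endpoint recorded as highest concentration tested. GI50 = concentration required for 50% inhibition of growth. TGI is the concentration that stops growth completely.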

Test systems include SNB-19 CNS; HT29 colon; HCT-15 colon; MDA-MB-231 breast; BT-549 breast; NCI-H522 lung; 786-0 renal; SK-MEL-28 melanoma; UACC-257 melanoma; HOP-92 NSCLC.
Common to all, as to experiment: DTP human tumour cell line panel, 48 h

As to `Cc1ccc(S(=O)(=O)N/N=C/c2c(O)ccc3ccccc23)cc1`, the TGI (usually the concentration at which net growth stops) in the assay with SNB-19 CNS is more than 100 µM; in the assay on HT29 colon, more than 100 µM; with HCT-15 colon it was more than 100 µM; in the assay on MDA-MB-231 breast, 70.7 µM; in the assay with BT-549 breast, 59.6 µM; in the assay with NCI-H522 lung it was 45.6 µM. The TGI in the assay with 786-0 renal, in the assay on SK-MEL-28 melanoma and with UACC-257 melanoma was more than 100 µM throughout.
For the molecule `COc1cc(NC(C)CCCNC2CN3CCC2CC3)c2ncccc2c1` (stereo not given), the GI50 (as a rule, the concentration at which growth is held to half of that of the control) in the assay on SNB-19 CNS is 15.8 µM; in the assay with HOP-92 NSCLC, 4.37 µM; with HT29 colon, 3.7 µM; in the assay on HCT-15 colon, 11.5 µM; with MDA-MB-231 breast it was 3.58 µM; in the assay on BT-549 breast, 14.8 µM. Further, the GI50 with 786-0 renal was 13.4 µM; in the assay with SK-MEL-28 melanoma, 11.3 µM; in the assay on UACC-257 melanoma, 2.39 µM. The concentration for total growth inhibition (TGI) amounted to 32 µM in the assay on SNB-19 CNS; 21.8 µM in the assay on HOP-92 NSCLC; 14 µM with HT29 colon; 27.3 µM with HCT-15 colon; 15.7 µM with MDA-MB-231 breast; 29.3 µM in the assay on BT-549 breast. Further, the results for the TGI with 786-0 renal, with SK-MEL-28 melanoma and with UACC-257 melanoma were 27.1 µM, 23.7 µM and 5.74 µM, respectively.
Take `O=C1Nc2ccccc2/C1=C/C(=O)c1coc2c1C(=O)c1ccccc1C2=O`: the GI50 with SNB-19 CNS is more than 100 µM; in the assay on HOP-92 NSCLC it was 59.7 µM; in the assay with HT29 colon, more than 100 µM; in the assay with HCT-15 colon, more than 100 µM; in the assay on MDA-MB-231 breast it was more than 100 µM; in the assay with NCI-H522 lung, more than 100 µM. The GI50 with 786-0 renal, in the assay on SK-MEL-28 melanoma and in the assay on UACC-257 melanoma was more than 100 µM throughout. Further, the TGI in the assay on SNB-19 CNS, in the assay on HOP-92 NSCLC, with HT29 colon, in the assay on HCT-15 colon, with MDA-MB-231 breast and in the assay with NCI-H522 lung was more than 100 µM throughout. Also, the TGI in the assay on 786-0 renal, in the assay with SK-MEL-28 melanoma and with UACC-257 melanoma was more than 100 µM each time.
Consider `CN(CCCn1c2c(c3ccccc3c1=O)C(=O)c1ccccc1-2)CCCn1c2c(c3ccccc3c1=O)C(=O)c1ccccc1-2`, for which the GI50 with SNB-19 CNS is 0.081 µM; with HOP-92 NSCLC it was 0.0671 µM; in the assay on HCT-15 colon, 0.229 µM; in the assay with BT-549 breast, 22 µM; with 786-0 renal it was 0.0214 µM; in the assay on SK-MEL-28 melanoma, 1.28 µM. The GI50 with UACC-257 melanoma is 21.6 µM. The TGI in the assay on SNB-19 CNS was 28 µM; with HOP-92 NSCLC, 1.9 µM; in the assay with HCT-15 colon, 2.62 µM; in the assay on BT-549 breast it was 83.1 µM; with NCI-H522 lung it was more than 100 µM; in the assay on 786-0 renal, 1.39 µM. Moreover, in the assay on UACC-257 melanoma, the concentration for total growth inhibition (TGI) is more than 73.2 µM.
`FC(F)(F)c1ccc(Nc2nc(-c3c(C(F)(F)F)nc4ccccn34)cs2)cc1`: the GI50 was 0.0625 µM in the assay with SNB-19 CNS; 0.0364 µM in the assay on HT29 colon; 0.0406 µM in the assay on HCT-15 colon; 0.81 µM in the assay with MDA-MB-231 breast; 0.0564 µM in the assay on BT-549 breast; 0.0284 µM in the assay on NCI-H522 lung. The GI50 was 0.0398 µM with 786-0 renal, 1.05 µM in the assay on SK-MEL-28 melanoma and 2.06 µM in the assay with UACC-257 melanoma. The TGI is 18.5 µM with SNB-19 CNS; 1.99 µM in the assay with HT29 colon; 5.64 µM in the assay with HCT-15 colon; 6.93 µM with MDA-MB-231 breast; 4.02 µM with BT-549 breast; 0.754 µM in the assay on NCI-H522 lung. Further, the TGI with 786-0 renal is 2.22 µM; in the assay on SK-MEL-28 melanoma, 16.9 µM; with UACC-257 melanoma, 8.64 µM.
Consider `COc1ccc(C2=CC(c3ccc4c(c3)OCO4)c3c(c4ccccc4oc3=O)O2)cc1OC` (stereo not given), for which the TGI with SNB-19 CNS is more than 100 µM; in the assay with HOP-92 NSCLC it was more than 100 µM; with HT29 colon it was more than 100 µM; in the assay with HCT-15 colon it was more than 31.6 µM; in the assay on MDA-MB-231 breast, more than 100 µM; with BT-549 breast it was more than 100 µM. The TGI in the assay with 786-0 renal, with SK-MEL-28 melanoma and with UACC-257 melanoma was more than 100 µM in each case.
Regarding `COc1cc([N+](=O)[O-])c(OC)cc1-c1nc2sc(Cl)cn2c1/C(N)=N/C(=N)N`, the GI50 was 3.91 µM with SNB-19 CNS; 7.06 µM in the assay with HOP-92 NSCLC; 3.02 µM in the assay with HT29 colon; 65 µM with HCT-15 colon; 2.19 µM in the assay on MDA-MB-231 breast; 11.4 µM in the assay on BT-549 breast. Moreover, the values for the GI50 with NCI-H522 lung, in the assay with 786-0 renal and in the assay with UACC-257 melanoma were 2.35 µM, 2.33 µM and 8 µM, respectively. Moreover, the TGI is more than 100 µM in the assay with SNB-19 CNS; 24 µM with HOP-92 NSCLC; more than 100 µM with HT29 colon; more than 100 µM with HCT-15 colon; 8.25 µM with MDA-MB-231 breast; 47.5 µM in the assay on BT-549 breast. Further, the TGI with NCI-H522 lung was determined as 5.49 µM; in the assay on 786-0 renal it was 5.64 µM; in the assay on UACC-257 melanoma, 22.6 µM.
As for `CC(C)(C)n1cc(-c2ccnc(NCCCNS(=O)(=O)c3ccc(C(F)(F)F)cc3)c2)c(-c2cccc(O)c2)n1`, the GI50 is 1.98 µM in the assay with SNB-19 CNS; 1.6 µM in the assay with HOP-92 NSCLC; 1.47 µM in the assay on HCT-15 colon; 2.13 µM in the assay on MDA-MB-231 breast; 1.61 µM with BT-549 breast; 1.99 µM with NCI-H522 lung. The GI50 is 1.8 µM with 786-0 renal, 1.75 µM in the assay on SK-MEL-28 melanoma and 2.07 µM with UACC-257 melanoma. Moreover, the TGI in the assay with SNB-19 CNS was found to be 3.83 µM; in the assay with HOP-92 NSCLC, 3.31 µM; with HCT-15 colon, 2.93 µM; with MDA-MB-231 breast, 3.98 µM; in the assay with BT-549 breast, 3.05 µM; with NCI-H522 lung, 3.98 µM. Moreover, the TGI in the assay on 786-0 renal was 3.38 µM; in the assay on SK-MEL-28 melanoma it was 3.25 µM; with UACC-257 melanoma, 4.6 µM.
For `C[C@H]1[C@H](C)CC[C@]2(CO)CC[C@]3(C)C(=CC[C@@H]4[C@@]5(C)CCCNC(C)(C)[C@@H]5CC[C@]43C)[C@H]12`, the GI50 in the assay with SNB-19 CNS is 1.86 µM; with HOP-92 NSCLC, 1.52 µM; in the assay on HT29 colon, 0.628 µM; with HCT-15 colon, 1.37 µM; in the assay on MDA-MB-231 breast it was 1.88 µM; with NCI-H522 lung, 1.71 µM. Further, the GI50 with 786-0 renal is 1.6 µM; in the assay on SK-MEL-28 melanoma it was 1.75 µM; with UACC-257 melanoma, 1.95 µM. Further, the concentration for total growth inhibition (TGI) in the assay with SNB-19 CNS is 3.43 µM; in the assay with HOP-92 NSCLC, 3.19 µM; in the assay with HT29 colon it was 1.97 µM; with HCT-15 colon, 2.75 µM; with MDA-MB-231 breast it was 3.48 µM; with NCI-H522 lung it was 3.32 µM. In addition, the TGI with 786-0 renal was determined as 3.06 µM; in the assay with SK-MEL-28 melanoma, 3.3 µM; with UACC-257 melanoma it was 3.7 µM.
